According to PubChem BioAssay (NCI):
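Cells were grown in 96-well plates and exposed to each compound for 48 hours at five concentrations; endpoints were interpolated linearly between bracketing concentrations, or set to the highest concentration if not reached. Here, GI50 denotes the concentration required for 50% inhibition of growth. TGI: total growth inhibition.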

Key:
Experiment in all cases: NCI anticancer screen, dose series, 48 h
SF-295 CNS = tested on: SF-295 CNS
SF-539 CNS = tested on: SF-539 CNS
NCI-H460 lung = tested on: NCI-H460 lung
SF-268 CNS = tested on: SF-268 CNS
OVCAR-5 ovarian = tested on: OVCAR-5 ovarian
HCT-116 colon = tested on: HCT-116 colon
SNB-19 CNS = tested on: SNB-19 CNS
K-562 leukemia = tested on: K-562 leukemia
ACHN renal = tested on: ACHN renal
SNB-75 CNS = tested on: SNB-75 CNS
SW-620 colon = tested on: SW-620 colon
MCF7 breast = tested on: MCF7 breast
EKVX NSCLC = tested on: EKVX NSCLC
786-0 renal = tested on: 786-0 renal
SK-MEL-28 melanoma = tested on: SK-MEL-28 melanoma
DU-145 prostate = tested on: DU-145 prostate
HCT-15 colon = tested on: HCT-15 colon
NCI-H522 lung = tested on: NCI-H522 lung
COLO 205 colon = tested on: COLO 205 colon
OVCAR-8 ovarian = tested on: OVCAR-8 ovarian
OVCAR-4 ovarian = tested on: OVCAR-4 ovarian
SR leukemia = tested on: SR leukemia
HT29 colon = tested on: HT29 colon
UACC-257 melanoma = tested on: UACC-257 melanoma
NCI-H226 lung = tested on: NCI-H226 lung
NCI/ADR-RES ovarian = tested on: NCI/ADR-RES ovarian
IGROV1 ovarian = tested on: IGROV1 ovarian
SN12C renal = tested on: SN12C renal
MDA-MB-435 = tested on: MDA-MB-435
NCI-H23 lung = tested on: NCI-H23 lung
A549 NSCLC = tested on: A549 NSCLC
TK-10 renal = tested on: TK-10 renal
SK-OV-3 ovarian = tested on: SK-OV-3 ovarian
U251 CNS = tested on: U251 CNS
UACC-62 melanoma = tested on: UACC-62 melanoma
OVCAR-3 ovarian = tested on: OVCAR-3 ovarian
SK-MEL-2 melanoma = tested on: SK-MEL-2 melanoma
LOX IMVI melanoma = tested on: LOX IMVI melanoma
MDA-N = tested on: MDA-N
CCRF-CEM leukemia = tested on: CCRF-CEM leukemia
T-47D breast = tested on: T-47D breast
SK-MEL-5 melanoma = tested on: SK-MEL-5 melanoma
HS 578T breast = tested on: HS 578T breast
HOP-62 NSCLC = tested on: HOP-62 NSCLC
RPMI-8226 leukemia = tested on: RPMI-8226 leukemia
PC-3 prostate = tested on: PC-3 prostate
HCC-2998 colon = tested on: HCC-2998 colon
MDA-MB-231 breast = tested on: MDA-MB-231 breast
UO-31 renal = tested on: UO-31 renal
MOLT-4 leukemia = tested on: MOLT-4 leukemia
RXF 393 renal = tested on: RXF 393 renal
CAKI-1 renal = tested on: CAKI-1 renal
M14 melanoma = tested on: M14 melanoma
HL-60(TB) leukemia = tested on: HL-60(TB) leukemia
BT-549 breast = tested on: BT-549 breast
MALME-3M melanoma = tested on: MALME-3M melanoma
HOP-92 NSCLC = tested on: HOP-92 NSCLC
A498 renal = tested on: A498 renal
KM12 colon = tested on: KM12 colon

COC(=O)C1Cc2c([nH]c3ccccc23)-c2[nH]c3ccccc3c2CC(NC(C)=O)C(=O)N2CCCC2C(=O)N1 (configuration not stated)
TGI (SF-295 CNS): > 100000 nM
TGI (SF-539 CNS): > 100000 nM
TGI (NCI-H460 lung): > 100000 nM
TGI (SF-268 CNS): > 100000 nM
TGI (OVCAR-5 ovarian): > 100000 nM
TGI (HCT-116 colon): > 100000 nM
TGI (SNB-19 CNS): > 100000 nM
TGI (K-562 leukemia): > 100000 nM
TGI (ACHN renal): > 100000 nM
TGI (SNB-75 CNS): > 100000 nM
TGI (SW-620 colon): > 100000 nM
TGI (MCF7 breast): > 100000 nM
TGI (EKVX NSCLC): > 100000 nM
TGI (786-0 renal): > 100000 nM
TGI (SK-MEL-28 melanoma): > 100000 nM
TGI (DU-145 prostate): > 100000 nM
TGI (HCT-15 colon): > 100000 nM
TGI (NCI-H522 lung): > 100000 nM
TGI (COLO 205 colon): > 100000 nM
TGI (OVCAR-8 ovarian): > 100000 nM
TGI (OVCAR-4 ovarian): > 100000 nM
TGI (SR leukemia): > 100000 nM
TGI (HT29 colon): > 100000 nM
TGI (UACC-257 melanoma): > 100000 nM
TGI (NCI-H226 lung): 18300 nM
TGI (NCI/ADR-RES ovarian): > 100000 nM
TGI (IGROV1 ovarian): > 100000 nM
TGI (SN12C renal): > 100000 nM
TGI (MDA-MB-435): > 100000 nM
TGI (NCI-H23 lung): > 100000 nM
TGI (A549 NSCLC): > 100000 nM
TGI (TK-10 renal): > 100000 nM
TGI (SK-OV-3 ovarian): > 100000 nM
TGI (U251 CNS): > 100000 nM
TGI (UACC-62 melanoma): > 100000 nM
TGI (OVCAR-3 ovarian): > 100000 nM
TGI (SK-MEL-2 melanoma): > 100000 nM
TGI (LOX IMVI melanoma): > 100000 nM
TGI (MDA-N): > 100000 nM
TGI (CCRF-CEM leukemia): > 100000 nM
TGI (T-47D breast): > 100000 nM
TGI (SK-MEL-5 melanoma): > 100000 nM
TGI (HS 578T breast): > 100000 nM
TGI (HOP-62 NSCLC): > 100000 nM
TGI (RPMI-8226 leukemia): > 100000 nM
TGI (PC-3 prostate): > 100000 nM
TGI (HCC-2998 colon): > 100000 nM
TGI (MDA-MB-231 breast): > 100000 nM
TGI (UO-31 renal): > 100000 nM
TGI (MOLT-4 leukemia): > 100000 nM
TGI (RXF 393 renal): > 100000 nM
TGI (CAKI-1 renal): > 100000 nM

Cc1cc2nc3c4cc([N+](=O)[O-])ccc4n(CCN(C)C)c3nc2cc1C
GI50 (SF-295 CNS): 388 nM
TGI (SF-295 CNS): 1790 nM
GI50 (SF-539 CNS): 469 nM
TGI (SF-539 CNS): 2560 nM
GI50 (NCI-H460 lung): 352 nM
TGI (NCI-H460 lung): 1750 nM
GI50 (SF-268 CNS): 787 nM
TGI (SF-268 CNS): 6920 nM
GI50 (OVCAR-5 ovarian): 651 nM
TGI (OVCAR-5 ovarian): 9820 nM
GI50 (HCT-116 colon): 353 nM
TGI (HCT-116 colon): 2840 nM
GI50 (SNB-19 CNS): 487 nM
TGI (SNB-19 CNS): > 32000 nM
GI50 (K-562 leukemia): 366 nM
TGI (K-562 leukemia): > 100000 nM
GI50 (ACHN renal): 297 nM
TGI (ACHN renal): 1680 nM
GI50 (SNB-75 CNS): 842 nM
TGI (SNB-75 CNS): 2700 nM
GI50 (SW-620 colon): 301 nM
TGI (SW-620 colon): 7190 nM
GI50 (MCF7 breast): 360 nM
GI50 (EKVX NSCLC): 579 nM
TGI (EKVX NSCLC): 5490 nM
GI50 (786-0 renal): 628 nM
TGI (786-0 renal): 3020 nM
GI50 (M14 melanoma): 467 nM
TGI (M14 melanoma): 1990 nM
GI50 (HL-60(TB) leukemia): 622 nM
TGI (HL-60(TB) leukemia): 3970 nM
GI50 (SK-MEL-28 melanoma): 967 nM
TGI (SK-MEL-28 melanoma): 2480 nM
GI50 (DU-145 prostate): 710 nM
TGI (DU-145 prostate): > 27800 nM
GI50 (HCT-15 colon): 360 nM
TGI (HCT-15 colon): 3040 nM
GI50 (BT-549 breast): 2000 nM
TGI (BT-549 breast): 5850 nM
GI50 (MALME-3M melanoma): 527 nM
TGI (MALME-3M melanoma): 1870 nM
GI50 (NCI-H522 lung): 893 nM
TGI (NCI-H522 lung): 4940 nM
GI50 (COLO 205 colon): 363 nM
TGI (COLO 205 colon): 2480 nM
GI50 (OVCAR-8 ovarian): 509 nM
TGI (OVCAR-8 ovarian): > 88000 nM
GI50 (OVCAR-4 ovarian): 527 nM
TGI (OVCAR-4 ovarian): 6600 nM
GI50 (SR leukemia): 253 nM
TGI (SR leukemia): 5100 nM
GI50 (HT29 colon): 387 nM
TGI (HT29 colon): 2330 nM
GI50 (UACC-257 melanoma): 725 nM
TGI (UACC-257 melanoma): 4210 nM
GI50 (NCI-H226 lung): 966 nM
TGI (NCI-H226 lung): 5810 nM
GI50 (NCI/ADR-RES ovarian): 382 nM
TGI (NCI/ADR-RES ovarian): 4600 nM
GI50 (IGROV1 ovarian): 385 nM
TGI (IGROV1 ovarian): 3230 nM
GI50 (SN12C renal): 448 nM
TGI (SN12C renal): > 54800 nM
GI50 (MDA-MB-435): 635 nM
TGI (MDA-MB-435): 1960 nM
GI50 (NCI-H23 lung): 501 nM
TGI (NCI-H23 lung): 2580 nM
GI50 (A549 NSCLC): 397 nM
TGI (A549 NSCLC): 3670 nM
GI50 (TK-10 renal): 373 nM
TGI (TK-10 renal): 4340 nM
GI50 (SK-OV-3 ovarian): 905 nM
TGI (SK-OV-3 ovarian): > 43400 nM
GI50 (HOP-92 NSCLC): 648 nM
TGI (HOP-92 NSCLC): 13300 nM
GI50 (U251 CNS): 480 nM
TGI (U251 CNS): 11900 nM
GI50 (UACC-62 melanoma): 594 nM
TGI (UACC-62 melanoma): 2130 nM
GI50 (OVCAR-3 ovarian): 590 nM
TGI (OVCAR-3 ovarian): 5230 nM
GI50 (SK-MEL-2 melanoma): 1000 nM
TGI (SK-MEL-2 melanoma): 3030 nM
GI50 (A498 renal): 452 nM
TGI (A498 renal): 1740 nM
GI50 (LOX IMVI melanoma): 280 nM
TGI (LOX IMVI melanoma): 1190 nM
GI50 (CCRF-CEM leukemia): 642 nM
TGI (CCRF-CEM leukemia): 21300 nM
GI50 (T-47D breast): 549 nM
TGI (T-47D breast): > 42000 nM
GI50 (SK-MEL-5 melanoma): 1020 nM
TGI (SK-MEL-5 melanoma): 2210 nM
GI50 (HS 578T breast): 1390 nM
TGI (HS 578T breast): 5870 nM
GI50 (HOP-62 NSCLC): 579 nM
TGI (HOP-62 NSCLC): > 40000 nM
GI50 (RPMI-8226 leukemia): 459 nM
TGI (RPMI-8226 leukemia): 3190 nM
GI50 (PC-3 prostate): 548 nM
TGI (PC-3 prostate): 10700 nM
GI50 (HCC-2998 colon): 683 nM
TGI (HCC-2998 colon): 2340 nM
GI50 (MDA-MB-231 breast): 602 nM
TGI (MDA-MB-231 breast): > 32700 nM
GI50 (UO-31 renal): 187 nM
TGI (UO-31 renal): 2520 nM
GI50 (MOLT-4 leukemia): 373 nM
TGI (MOLT-4 leukemia): 8680 nM
GI50 (RXF 393 renal): 650 nM
TGI (RXF 393 renal): 2210 nM
GI50 (CAKI-1 renal): 334 nM
TGI (CAKI-1 renal): 2210 nM
GI50 (KM12 colon): 560 nM
TGI (KM12 colon): > 100000 nM
